Measured values published in patent publication US8968771B2, “Articles and methods for applying antimicrobial protection” (Coeus Technology, Inc., priority 2011, dated 2015).

Test: Polymerization / stability of the molecule in solution with water
Format: physicochemical
Conditions: industrially-available preparation placed in solution with water
From the text: Solutions of industrially-available preparations (e.g. 3-(trihydroxysilyl) propyldimethyloctadecyl ammonium chloride) were placed in solution with water. It was discovered that at higher concentrations (e.g. at or above about 3 to 4 percent weight/volume) the molecules polymerize to an unsatisfactory degree, making a stable solution either impossible or heavier and unsuitable for saturating a wipe-type substrate or spraying onto a surface or substrate. […] These solutions remain stable in impregnated or saturated substrates (e.g. wipes in a liquid-tight containers) or in a bottle or other container for the solution. […] When the substrate is used to wipe, the solution with the solute remains on the wiped surface in a layer. As the solvent is dried, by evaporation or otherwise, the solute remains in a dry physical layer that remains to physically combat microbes.

For `CCCCCCCCCCCCCCCCCC[N+](C)(C)CCC[Si](O)(O)O.[Cl-]` [3-(trihydroxysilyl) propyldimethyloctadecyl ammonium chloride], the “Concentration in water at which the molecules polymerize to an unsatisfactory degree” value was 3 to 4 percent weight/volume.
